These results are taken from patent publication US9763445B2, “Safened herbicidal compositions comprising a pyridine carboxylic acid herbicide” (Dow AgroSciences, LLC, priority 2014, dated 2017).

Where two headings read alike, the source gives them in different places.

One data set deals with spring wheat (TRZAS). The data set is described as follows: Postemergence greenhouse trial, % visual injury on spring wheat. It is filed as in vivo, Triticum aestivum. The conditions noted are these: TRZAS. A digest of the protocol:
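Injury was scored visually (0 = none, 100 = complete kill) 20–22 d after track-sprayer application at 187 L/ha, compared with solvent-sprayed controls. Test plants at the 2–3 true leaf stage; herbicide (g ae/ha) plus cloquintocet-mexyl safener (g ai/ha) in crop-oil-containing spray; expected mixture response by Colby.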

In a further data set the test system is kochia (KCHSC). The data set is described as follows: Postemergence greenhouse trial, % visual injury on kochia. Type of data set: in vivo, Kochia scoparia. The note with it: Bassia scoparia, post-emergence, KCHSC, read-out: % visual injury, Ob; for pest or weed control at 4.38 g/ha: compound 4.380 g/ha. A digest of the protocol: (§1)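 Herbicide rates g ae/ha, safener (cloquintocet-mexyl) rates g ai/ha; spray carrier 1.5% v/v crop oil concentrate, 187 L/ha, 2nd–3rd leaf stage. Rating: visual % injury at 20-22 d.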

The next data set concerns thistle (CIRAR). The experiment in a line: Postemergence greenhouse trial, % visual injury on thistle. Type of data set: in vivo, Cirsium arvense. The conditions noted are these: Cirsium arvense, post-emergence, CIRAR, read-out: % visual injury, Ob. A digest of the protocol:
(§2)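 Visual injury, 0 (none) to 100 (complete kill), rated 20-22 d after overhead track-sprayer application at 187 L/ha; Colby's equation gave expected mixture responses. Herbicide (g ae/ha) and cloquintocet-mexyl safener (g ai/ha) diluted in aqueous 1.5% v/v Agri-dex, applied to weeds at 2–3 true leaves.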

For a further data set, the system named is winter rape (BRSNW). The data set is described as follows: Postemergence greenhouse trial, % visual injury on winter rape. It is filed as in vivo, Brassica napus. The conditions noted are these: Brassica napus, post-emergence, BRSNW, read-out: % visual injury, Ob. A digest of the protocol:
as §2

Data set [1] has as its system purple deadnettle (LAMPU). The data set is described as follows: Postemergence greenhouse trial, % visual injury on purple deadnettle. The conditions noted are these: LAMPU, CQC-m 0. It is filed as in vivo, Lamium purpureum. The procedure:
Seeds of the desired test plant species were planted in Sun Gro MetroMix® 306 planting mixture, which typically has a pH of 6.0 to 6.8 and an organic matter content of about 30 percent, in plastic pots with a surface area of 103.2 square centimeters (cm^2). When required to ensure good germination and healthy plants, a fungicide treatment and/or other chemical or physical treatment was applied. The plants were grown for 7-36 days (d) in a greenhouse with an approximate 14-hour (h) photoperiod which was maintained at about 23° C. during the day and 22° C. during the night. Nutrients and water were added on a regular basis and supplemental lighting was provided with overhead metal halide 1000-Watt lamps as necessary. The plants were employed for testing when they reached the second or third true leaf stage.
Weighed amounts of technical material were dissolved in a volume of 97:3 volume per volume (v/v) acetone/dimethyl sulfoxide (DMSO) to stock solutions. […] The concentrated stock solutions were diluted with an aqueous mixture of 1.5% v/v of Agri-dex crop oil concentrate to provide the appropriate application rates. Compound requirements are based upon a 12 milliliter (mL) application volume at a rate of 187 liters per hectare (L/ha). Stocks solutions of the safeners were prepared following the same procedure. Spray solutions of the safeners and experimental compound mixtures were prepared by adding the stock solutions to the appropriate amount of dilution solution to form a 12 mL spray solution in two-way combinations. Formulated compounds were applied to the plant material with an overhead Mandel track sprayer equipped with 8002E nozzles calibrated to deliver 187 L/ha over an application area of 0.503 square meters (m^2) at a spray height of 18 inches (43 centimeters (cm)) above average plant canopy. Control plants were sprayed in the same manner with the solvent blank. All herbicide application (component a) rates are in g ae/ha and all safener (component b) rates are in g ai/ha.
The treated plants and control plants were placed in a greenhouse as described above and watered by sub-irrigation to prevent wash-off of the test compounds. After 20-22 d, the condition of the test plants as compared with that of the control plants was determined visually and scored on a scale of 0 to 100 percent where 0 corresponds to no injury and 100 corresponds to complete kill. […] Colby's equation was used to determine the herbicidal effects expected from the mixtures. […]

A further data set deals with common poppy (PAPRH). The experiment in a line: Postemergence greenhouse trial, % visual injury on common poppy. Type of data set: in vivo, Papaver rhoeas. The note with it: Papaver rhoeas, post-emergence, PAPRH, read-out: % visual injury, Ob. A digest of the protocol: as §1

As to `CO/C=N/c1c(F)c(-c2ccc3cc[nH]c3c2F)nc(C(=O)OC)c1Cl` [compound 10], the “% visual injury, Ob” value in the data set on spring wheat (TRZAS) (compound 4.380 g/ha, CQC-m 0) is reported as 10%; in the data set on spring wheat (TRZAS) (compound 8.75 g/ha, CQC-m 0) it was 25%; in the data set on spring wheat (TRZAS) (compound 17.5 g/ha, CQC-m 0), 40%; with spring wheat (TRZAS) (compound 35 g/ha, CQC-m 0), 60%; in the data set on spring wheat (TRZAS) (compound 70 g/ha, CQC-m 0), 70%. The pest or weed control at 4.38 g/ha in the data set with kochia (KCHSC) (CQC-m 0) worked out at 80%; in the data set with thistle (CIRAR) (compound 4.380 g/ha, CQC-m 0) it was 30%. For the same compound, the pest or weed control at 8.75 g/ha came to 80% in the data set with kochia (KCHSC) (compound 8.75 g/ha, CQC-m 0) and 40% with thistle (CIRAR) (compound 8.75 g/ha, CQC-m 0). Besides, the pest or weed control at 17.5 g/ha in the data set on kochia (KCHSC) (compound 17.5 g/ha, CQC-m 0) amounted to 100%; in the data set on thistle (CIRAR) (compound 17.5 g/ha, CQC-m 0), 60%. The pest or weed control at 35 g/ha in the data set with kochia (KCHSC) (compound 35 g/ha, CQC-m 0) was 100%; in the data set with thistle (CIRAR) (compound 35 g/ha, CQC-m 0), 85%. The pest or weed control at 70 g/ha with kochia (KCHSC) (compound 70 g/ha, CQC-m 0) was 100%; with thistle (CIRAR) (compound 70 g/ha, CQC-m 0) it was 100%. Besides, the plant injury at 4.38 g/ha in the data set with winter rape (BRSNW) (compound 4.380 g/ha, CQC-m 0) was 85%. Besides, the plant injury at 8.75 g/ha in the data set on winter rape (BRSNW) (compound 8.75 g/ha, CQC-m 0) is 95%. Further, the plant injury at 17.5 g/ha in the data set with winter rape (BRSNW) (compound 17.5 g/ha, CQC-m 0) was determined as 100%. In addition, the plant injury at 35 g/ha with winter rape (BRSNW) (compound 35 g/ha, CQC-m 0) is 100%. Also, the plant injury at 70 g/ha in the data set with winter rape (BRSNW) (compound 70 g/ha, CQC-m 0) was 100%.
`COC(=O)c1nc(-c2ccc3cc[nH]c3c2F)c(F)c(N)c1OC` [compound 12]: the “% visual injury, Ob” value was 15% with spring wheat (TRZAS) (compound 4.380 g/ha, CQC-m 0); 27% with spring wheat (TRZAS) (compound 8.75 g/ha, CQC-m 0); 42% in the data set with spring wheat (TRZAS) (compound 17.5 g/ha, CQC-m 0); 53% in the data set on spring wheat (TRZAS) (compound 35 g/ha, CQC-m 0); 70% in the data set on spring wheat (TRZAS) (compound 70 g/ha, CQC-m 0); 60% in data set [1] (compound 4.380 g/ha). Also, the “% visual injury, Ob” value came to 75% in data set [1] (compound 8.75 g/ha), 80% in data set [1] (compound 17.5 g/ha), 90% in data set [1] (compound 35 g/ha) and 97% in data set [1] (compound 70 g/ha). Moreover, the pest or weed control at 4.38 g/ha was determined as 15% in the data set with kochia (KCHSC) (CQC-m 0) and 90% with common poppy (PAPRH) (compound 4.380 g/ha, CQC-m 0). Also, the pest or weed control at 8.75 g/ha in the data set with kochia (KCHSC) (compound 8.75 g/ha, CQC-m 0) is 62%; with common poppy (PAPRH) (compound 8.75 g/ha, CQC-m 0), 93%. In addition, the pest or weed control at 17.5 g/ha was 82% in the data set with kochia (KCHSC) (compound 17.5 g/ha, CQC-m 0) and 95% in the data set on common poppy (PAPRH) (compound 17.5 g/ha, CQC-m 0). The pest or weed control at 35 g/ha turned out to be 95% in the data set with kochia (KCHSC) (compound 35 g/ha, CQC-m 0) and 100% with common poppy (PAPRH) (compound 35 g/ha, CQC-m 0). For the same compound, the pest or weed control at 70 g/ha with kochia (KCHSC) (compound 70 g/ha, CQC-m 0) turned out to be 95%; in the data set with common poppy (PAPRH) (compound 70 g/ha, CQC-m 0), 100%.
For `Nc1c(F)c(-c2ccc3scnc3c2)nc(C(=O)O)c1Cl` [compound 17], the “% visual injury, Ob” value with spring wheat (TRZAS) (4.375 g/ha, applied alone) is 0%; in the data set with spring wheat (TRZAS) (8.75 g/ha, applied alone) it was 15%; in the data set on spring wheat (TRZAS) (17.5 g/ha, applied alone), 30%; in the data set on spring wheat (TRZAS) (35 g/ha, applied alone), 40%; in the data set on spring wheat (TRZAS) (70 g/ha, applied alone) it was 45%. Besides, the pest or weed control at 4.375 g/ha was determined as 85% in the data set with kochia (KCHSC) (4.375 g/ha, applied alone); 0% in the data set on thistle (CIRAR) (4.375 g/ha, applied alone); 80% in the data set on common poppy (PAPRH) (4.375 g/ha, applied alone). Also, the pest or weed control at 8.75 g/ha in the data set with kochia (KCHSC) (8.75 g/ha, applied alone) turned out to be 90%; with thistle (CIRAR) (8.75 g/ha, applied alone) it was 0%; in the data set on common poppy (PAPRH) (8.75 g/ha, applied alone), 85%. The pest or weed control at 17.5 g/ha in the data set with kochia (KCHSC) (17.5 g/ha, applied alone) is 95%; in the data set with thistle (CIRAR) (17.5 g/ha, applied alone) it was 10%; in the data set on common poppy (PAPRH) (17.5 g/ha, applied alone), 85%. Also, the pest or weed control at 35 g/ha with kochia (KCHSC) (35 g/ha, applied alone) came out at 100%; with thistle (CIRAR) (35 g/ha, applied alone) it was 20%; in the data set on common poppy (PAPRH) (35 g/ha, applied alone), 95%. The pest or weed control at 70 g/ha with kochia (KCHSC) (70 g/ha, applied alone) was found to be 100%; in the data set on thistle (CIRAR) (70 g/ha, applied alone) it was 20%; with common poppy (PAPRH) (70 g/ha, applied alone), 100%. For the same compound, the plant injury at 4.375 g/ha in the data set on winter rape (BRSNW) (4.375 g/ha, applied alone) came out at 60%. Besides, the plant injury at 8.75 g/ha with winter rape (BRSNW) (8.75 g/ha, applied alone) was 90%. Moreover, the plant injury at 17.5 g/ha in the data set with winter rape (BRSNW) (17.5 g/ha, applied alone) is 95%. For the same compound, the plant injury at 35 g/ha with winter rape (BRSNW) (35 g/ha, applied alone) turned out to be 95%. Moreover, the plant injury at 70 g/ha with winter rape (BRSNW) (70 g/ha, applied alone) is 97%.
